ChEMBL document CHEMBL5579795, “Therapeutic potential of Coumarin-polyphenolic acid hybrids in PD: Inhibition of α-Syn aggregation and disaggregation of preformed fibrils, leading to reduced neuronal inclusion formation” (Bioorg Med Chem Lett, 2024)

How the values were obtained:
[1] = Cytotoxicity against rat PC-12 cells assessed as cell viability at 100 uM measured after 24 hrs by CCK-8 assay (reference value: 100%); type: toxicity, cell-based; conditions: read-out: Activity
Alpha-synuclein = Alpha-synuclein (Homo sapiens, UniProt P37840); test: Inhibition of alpha-Synuclein (unknown origin) aggregation assessed as aggregation inhibition ratio measured after 72 hrs by Thioflavin T based fluorescence assay

With `O=C(/C=C/c1cc(O)ccc1O)Nc1ccc2oc(=O)ccc2c1` the viability at 24 h, 100 µM [1] was over 90%.

Molecule `O=C(Nc1ccc2oc(=O)ccc2c1)c1cc(O)ccc1O` has a viability at 24 h, 100 µM [1] of over 80%.

`Oc1cc(O)c2c(c1)O[C@H](c1cc(O)c(O)c(O)c1)[C@H](O)C2` [EPIGALLOCATECHIN] showed an IC50 (Alpha-synuclein) of 2.58 µM.

For `O=C(/C=C/c1cc(O)ccc1O)Nc1ccc2oc(=O)c(NC(=O)/C=C/c3cc(O)ccc3O)cc2c1`, the viability at 24 h, 100 µM [1] was over 90%.

Work on `O=C(/C=C/c1cc(O)c(O)c(O)c1)Nc1ccc2oc(=O)ccc2c1` yielded a viability at 24 h, 100 µM [1] of over 90%.
